How the values were obtained:
TDO2 = biological target: T1, TDO2 (Mus musculus, UniProt P48776); experiment: Pharmacodynamic assay for TDO2 in vivo activity: increase of blood tryptophan levels in mice; conditions: for increase of circulating Tryptophan: plasma after two hours, vs vehicle; for Tryptophan concentration in plasma (average ± standard error of the mean): two hours, LC-MS-MS
T1 construct: from tissue; host or cells: live mice (whole animal; plasma tryptophan read-out)
Protocol: The compounds of the present invention increase the amount of Tryptophan in mouse blood.
Briefly, mice were treated with either a suspension of one of the compounds of the present invention in 0.5% HPMC K4M/0.25% Tween 20 at different doses (30, 60 and 100 mg/kg), or with a vehicle control (0.5% HPMC K4M/0.25% Tween 20), by the oral route by gavage (dosing volume 5 mL/kg, 10 mice per group). After two hours, blood was harvested, plasma was prepared and the amount of Tryptophan present was determined by LC-MS-MS (HPLC column Unison UK-Phenyl, 75×4.6, 3 μm, flow rate 0.8 mL/min, 8 minutes gradient from 95% water+0.1% formic acid/5% Acetonitrile+0.1% formic acid to 5% water+0.1% formic acid/95% Acetonitrile+0.1% formic acid, retention time 2.4 min; API4000 MS-MS system from AB Sciex, ESI+ mode, parent ion 205.1, daughter ion 146.1).

human TDO2 [1] = biological target: T2, human TDO2 (Homo sapiens, UniProt P48775); experiment: Cellular assay for TDO2 activity, A172 cells naturally expressing hTDO2; format: cell-based; parameters: expressed in transfected cells; host or cells: murine mastocytoma P815 cells; conditions: A172 cells naturally expressing hTDO2, overnight incubation, kynurenine absorbance at 480 nm
Protocol: (§1) The assay was performed in 96-well flat bottom plates seeded with […] A172 cells, naturally expressing hTDO2 (prepared as described in Tilman et al., Mol Cancer, 2007, 17(6), 80), at a concentration of 1.25×10^4 cells/well in a final volume of 200 μL. To determine TDO, the cells were incubated overnight at 37° C. at 5% CO2 in IMDM (Invitrogen) supplemented with 2% FBS and 2% penicillin/streptomycin in the presence of the compounds of the present invention, at different concentrations.
(§2) The plates were then centrifuged 5 min at 1000 rpm, and 100 μL of the supernatant were collected in a conical plate, 30 uL of TCA 30% were added and a further centrifugated at 3000×g for 10 minutes. 100 μL of the supernatant were collected in a flat bottomed plate and 100 μL of 2% (w/v) 4-(dimethylamino)-benzaldehyde in acetic acid and incubated for 5 min at room temperature. Kynurenine concentrations were determined by measuring the absorbance at 480 nm. A standard curve was made with pure kynurenine. The TDO activity was measured as described above using ten serial concentrations of the compounds of the present invention. Data were fitted using the Prism software (GraphPad Software, Inc.).

human TDO2 [2] = biological target: T2, human TDO2; experiment: Cellular assay for TDO2 activity, hTDO2-overexpressing P815 cells; format: cell-based; parameters: expressed in transfected cells; host or cells: murine mastocytoma P815 cells; conditions: murine mastocytoma P815 cells overexpressing hTDO2, overnight incubation, kynurenine absorbance at 480 nm
Protocol: as §1, with “P815 cells overexpressing” for “A172 cells, naturally expressing”, “Pilotte” for “Tilman”, “PNAS, 2012, 109(7), 2497-2502),” for “Mol Cancer, 2007, 17(6), 80),”, “5×10^4” for “1.25×10^4”, “TDO or IDO activity,” for “TDO,”
as §2

human TDO2 [3] = biological target: T2, human TDO2; experiment: Assay for TDO2 enzymatic activity determination; format: biochemical; parameters: made in house; conditions: human recombinant TDO2, L-Trp 1 mM, room temperature, one hour, kynurenine absorbance at 480 nm
Protocol: To measure the TDO2 activity, the reaction mixture contained (final concentrations) potassium phosphate buffer (50 mM, pH 7.5), ascorbic acid (0.25 M), methylene blue (0.125 μM), catalase (40 units/mL, from bovine liver, Sigma), and human recombinant TDO2 enzyme (prepared as described in Dolusic et al. J. Med. Chem.; 2011, 54, 5320-5334; 0.9 μg) without or with the compounds of the present invention at the indicated concentrations (total volume 112.5 μL). The reaction was initiated by the addition of 37.5 μL of L-Trp (final concentration 1 mM) at room temperature. The reaction was conducted at room temperature during one hour and stopped by the addition of 30 μL of 30% (w/v) trichloroacetic acid.
To convert N-formylkynurenine into kynurenine, the reaction mixture was incubated at 65° C. for 30 min. Then 150 μL of the reaction mixture was mixed with 120 μL of 2.5% (w/v) 4-(dimethylamino)-benzaldehyde in acetic acid and incubated for 5 min at room temperature. Kynurenine concentrations were determined by measuring the absorbance at 480 nm. A standard curve was made with pure kynurenine. The TDO activity was measured as described above using ten serial concentrations of the compounds of the present invention. Data were fitted using the Prism software (GraphPad Software, Inc.).

T2 sequence (P48775 whole entry): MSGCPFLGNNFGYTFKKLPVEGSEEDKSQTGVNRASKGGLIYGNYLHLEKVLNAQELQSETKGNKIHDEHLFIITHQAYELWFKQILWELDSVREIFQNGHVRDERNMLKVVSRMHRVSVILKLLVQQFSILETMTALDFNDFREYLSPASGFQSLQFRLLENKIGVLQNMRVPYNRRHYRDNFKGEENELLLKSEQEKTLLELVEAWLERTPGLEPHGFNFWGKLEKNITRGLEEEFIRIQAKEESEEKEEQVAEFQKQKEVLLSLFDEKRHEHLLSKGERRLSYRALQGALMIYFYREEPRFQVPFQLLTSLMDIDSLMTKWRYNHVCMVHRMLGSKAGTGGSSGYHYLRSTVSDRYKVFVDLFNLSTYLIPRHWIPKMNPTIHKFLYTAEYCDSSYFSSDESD
T1 sequence (P48776 whole entry): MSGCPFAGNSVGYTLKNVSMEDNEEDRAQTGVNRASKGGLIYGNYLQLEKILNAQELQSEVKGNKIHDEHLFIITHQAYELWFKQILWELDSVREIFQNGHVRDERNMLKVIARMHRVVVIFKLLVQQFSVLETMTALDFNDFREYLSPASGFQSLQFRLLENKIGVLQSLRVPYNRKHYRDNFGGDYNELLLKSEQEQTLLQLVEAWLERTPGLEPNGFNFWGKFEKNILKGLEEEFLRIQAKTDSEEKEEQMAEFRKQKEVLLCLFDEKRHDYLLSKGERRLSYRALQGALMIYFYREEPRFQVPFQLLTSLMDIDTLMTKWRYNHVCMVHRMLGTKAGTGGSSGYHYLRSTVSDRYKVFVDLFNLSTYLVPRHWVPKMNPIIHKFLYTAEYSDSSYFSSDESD

| SMILES | IC50 (human TDO2 [2]) | IC50 (human TDO2 [3]) | also measured |
| --- | --- | --- | --- |
| CC(=O)N1CCC(n2cc(-c3c[nH]c4cc(F)ccc34)cn2)CC1 [Compound 89, 1-(4-(4-(6-fluoro-1H-indol-3-yl)-1H-pyrazol-1-yl)piperidin-1-yl)ethanone] |  |  | increase of circulating Tryptophan (TDO2; 30 mg/kg oral gavage, p<0.05): 26%; Tryptophan concentration in plasma (average ± standard error of the mean) (TDO2; 30 mg/kg oral gavage): 25126 ng/mL; Tryptophan concentration in plasma (average ± standard error of the mean) (TDO2; 60 mg/kg oral gavage): 28452 ng/mL; increase of circulating Tryptophan (TDO2; 100 mg/kg oral gavage, p<0.001): 43%; Tryptophan concentration in plasma (average ± standard error of the mean) (TDO2; 100 mg/kg oral gavage): 28374 ng/mL; increase of circulating Tryptophan (TDO2; printed 30 mg/kg (second mention, p<0.001), oral gavage): 43%; melting point: 183.2 to 184.5 °C |
| Fc1ccc2c(-c3cnn(CC4CCNCC4)c3)c[nH]c2c1 [Compound 43, 6-fluoro-3-(1-(piperidin-4-ylmethyl)-1H-pyrazol-4-yl)-1H-indole] |  |  | IC50 (human TDO2 [1]): < 1 µM |
| CS(=O)(=O)N1CCC(n2cc(-c3c[nH]c4cc(F)ccc34)cn2)CC1 [Compound 106, 6-fluoro-3-(1-(1-(methylsulfonyl)piperidin-4-yl)-1H-pyrazol-4-yl)-1H-indole] | < 1 µM | 1 to 10 µM | IC50 (human TDO2 [1]): < 1 µM |
| CS(=O)(=O)CCCC(=O)N1CCC(n2cc(-c3c[nH]c4cc(F)ccc34)cn2)CC1 [Compound 103, 1-(4-(4-(6-fluoro-1H-indol-3-yl)-1H-pyrazol-1-yl)piperidin-1-yl)-4-(methylsulfonyl)butan-1-one] | 1 to 10 µM | 10 to 100 µM |  |
| Cc1nn(C)cc1-c1c[nH]c2cc(F)ccc12 [Compound 75, 3-(1,3-dimethyl-1H-pyrazol-4-yl)-6-fluoro-1H-indole] | < 1 µM | 1 to 10 µM |  |
| NC(=O)C(O)Cn1cc(-c2c[nH]c3cc(F)ccc23)cn1 (centres unmarked) [Compound 37, 3-(4-(6-fluoro-1H-indol-3-yl)-1H-pyrazol-1-yl)-2-hydroxypropanamide] | < 1 µM | 1 to 10 µM |  |
| CS(=O)(=O)CCC(=O)N1CCC(n2cc(-c3c[nH]c4cc(F)ccc34)cn2)CC1 [Compound 105, 1-(4-(4-(6-fluoro-1H-indol-3-yl)-1H-pyrazol-1-yl)piperidin-1-yl)-3-(methylsulfonyl)propan-1-one] | < 1 µM | 1 to 10 µM |  |
| O=C(CCO)N1CCC(n2cc(-c3c[nH]c4cc(F)ccc34)cn2)CC1 [Compound 104, 1-(4-(4-(6-fluoro-1H-indol-3-yl)-1H-pyrazol-1-yl)piperidin-1-yl)-3-hydroxypropan-1-one] | < 1 µM | 1 to 10 µM |  |
| COCC(=O)N1CCC(n2cc(-c3c[nH]c4cc(F)ccc34)cn2)CC1 [Compound 85, 1-(4-(4-(6-fluoro-1H-indol-3-yl)-1H-pyrazol-1-yl)piperidin-1-yl)-2-methoxyethanone] |  |  | IC50 (human TDO2 [1]): < 1 µM |
| OC1CCC(n2cc(-c3c[nH]c4cc(F)ccc34)cn2)CC1 [Compound 68, (1R,4R)-4-(4-(6-fluoro-1H-indol-3-yl)-1H-pyrazol-1-yl)cyclohexanol] | < 1 µM | 1 to 10 µM |  |
| Cn1ncc(-c2c[nH]c3ccccc23)c1C(F)(F)F [Compound 77, 3-(1-methyl-5-(trifluoromethyl)-1H-pyrazol-4-yl)-1H-indole] | 1 to 10 µM | 10 to 100 µM |  |

Reference: patent US20160263087A1, “NOVEL 4-(INDOL-3-YL)-PYRAZOLE DERIVATIVES, PHARMACEUTICAL COMPOSITIONS AND METHODS FOR USE” (ITEOS THERAPEUTICS, priority 2013, published 2016)
